# Test system: dogs with naturally occurring keratoconjunctivitis sicca
# Experiment: Schirmer tear quantification in dogs treated topically with tacrolimus suspension
# Format: in vivo, dog
# Conditions: topical administration to the eye
# Text: In the present invention, tacrolimus is typically administered topically as an aqueous ophthalmic suspension that can be in the form of drops or an ointment. While the particular mixture and efficacious concentration of tacrolimus can be varied, one such suspension used in the treatment of a number of dogs included the following: i) Approximately 0.02 percent weight/volume tacrolimus crystals, ii) Approximately 0.2 percent weight/volume hydroxypropyl methylcellulose, iii) Approximately 0.4 percent weight/volume lactose, and iv) Sterile, deionized water mixed with the first three ingredients in an amount sufficient to achieve the above-noted concentrations. The following examples illustrate the effectiveness of the treatment method of the present invention. Specifically, eleven different dogs of varying breeds and ages were treated using the above solution for treatment periods ranging from 20-84 days. The eleven dogs had naturally occurring keratoconjunctivitis sicca. The subject dogs received one drop of the above-described tacrolimus-based suspension topically in the eye, twice a day. Prior to therapy, tear production was measured using standard Schirmer tear quantification. Corneal fibrosis, vascularization and pigmentation were measured using slit lamp biomicroscopy and fundus reflection during indirect ophthalmoscopy. […]
structure (smiles),measurement,value
"C=CC[C@@H]1/C=C(\C)C[C@H](C)C[C@H](OC)[C@H]2O[C@@](O)(C(=O)C(=O)N3CCCC[C@H]3C(=O)O[C@H](/C(C)=C/[C@@H]3CC[C@@H](O)[C@H](OC)C3)[C@H](C)[C@@H](O)CC1=O)[C@H](C)C[C@@H]2OC [tacrolimus, Tacrolimus]",effect on lacrimal gland tearing,increases lacrimal gland tearing

# From patent US20040087612A1, “Method of increasing lacrimal gland tearing by topical administration of tacrolimus” (priority 2002, published 2004)
